{
  "source": "patent US11478458B2",
  "about": "“Inhibitors of short-chain dehydrogenase activity for promoting neurogenesis and inhibiting nerve cell death” (CASE WESTERN RESERVE UNIVERSITY, priority 2016, dated 2022)",
  "key": {"[1]": {"test_system": "prostaglandin E2 (PGE2) in brain", "test": "PGE2 in 3 regions of the mouse brain after intraperitoneal injection", "assay_type": "in vivo", "settings": "2.5 mg/kg IP, 3 hours after injection; cerebrum, cerebellum, medulla/pons; 3 mice", "from_the_text": "Brain regions sampled are #1, the cerebrum, #2, the cerebellum, and #3, medulla/pons. Basal PGE2 is highest in the cerebrum and medulla/pons, and lowest in the cerebellum."}, "[2]": {"test_system": "mice subjected to blast injury (traumatic brain injury)", "test": "learning, memory and beam walking after traumatic brain injury (blast injury)", "assay_type": "in vivo", "settings": "blast-injured mice", "method": "In this study, mice were on day 0 subjected to traumatic brain injury from exposure to an adjacent blast injury in an overpressure chamber. 24 hours later, on study day 1, mice treatment with (+) SW033291 at 10 mg/kg was initiated by daily intraperitoneal injection. A parallel cohort of control mice were initiated on injection with vehicle only. On study day 7, mice commenced 4 days of daily training to learn the location of a cup on a table with 20 holes equally spaced around the perimeter, in the standard Barnes maze task. […] Cohorts that are compared are sham-injured mice, mice subjected to blast injury and treated with vehicle, mice subjected to blast injury and treated with the neuroprotective agent P7C3-A20, and mice subjected to blast injury and treated with (+) SW033291. Quicker time in finding the cup on day 4 is reflective of learning.\nOn study day 11, mice were returned to the Barnes maze with the escape cup removed, and memory was assessed by measuring the time mice spent within 5 cm of the cup's prior location.\nOn study day 12-14, mice were further trained to traverse a ½ inch cylindrical rod to reach and enter a black box. On day 14, the mice performance was videotaped and counts were made of the number of times a mouse foot slipped from the beam. […] In this assay, the worst performance is recorded for mice exposed to blast-injury receiving vehicle injections."}, "[3]": {"molecular_target": "T1, 15-PGDH (Mus musculus, UniProt Q8VCC1)", "T1 construct": "from tissue; host or cells: mouse brain (cortex, cerebellum, pons and medulla)", "T1 sequence (Q8VCC1 1-269)": "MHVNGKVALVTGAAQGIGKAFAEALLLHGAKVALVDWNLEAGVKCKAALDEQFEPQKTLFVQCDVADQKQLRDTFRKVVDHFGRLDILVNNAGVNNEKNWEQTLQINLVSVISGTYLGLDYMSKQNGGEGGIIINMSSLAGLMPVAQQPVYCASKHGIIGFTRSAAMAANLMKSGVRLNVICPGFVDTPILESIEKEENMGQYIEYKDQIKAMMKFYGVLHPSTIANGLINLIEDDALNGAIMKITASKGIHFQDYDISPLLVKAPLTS", "test": "15-PGDH activity in mouse brain regions after IP injection", "assay_type": "in vivo", "settings": "2.5 mpk IP", "method": "FIGS. 6(A-C) illustrate graphs showing 15-PGDH activity in the cortex (A), cerebellum (B), and pons and medulla (C) of mouse brain following IP injection of 15-PGDH inhibitor (+) SW033291 at 2.5 mpk. 15-PGDH activity was measured from the 3 regions of mouse brain using a 15-tritiated PGE2 substrate. A coupled enzymatic assay uses 15-PGDH and glutamate dehydrogenase to transfer tritium from PGE2 onto glutamate. Brain tissues were harvested for assay at the times shown following IP injection of 15-PGDH inhibitor (+)-SW033291 at 2.5 mpk."}, "[4]": {"test_system": "PGE2 levels in rat brain cortex", "test": "PGE2 levels in rat brain cortex after IP injection", "assay_type": "in vivo", "method": "FIG. 7 illustrates a graph showing PGE2 levels in rat brain cortex following IP injection of (+) SW033291 at 2.5, 5.0, and 10.0 mg/kg. PGE2 levels are elevated in rat brain cortex 30, 120, and 180 minutes following a single IP injection of (+)-SW033291 at the noted doses."}, "[5]": {"test": "pharmacokinetics in plasma and brain after intraperitoneal injection", "assay_type": "in vivo", "settings": "mouse, 25 mg/kg intraperitoneal, female C57BL/7 mice, read-out: total drug exposure (area under the curve) in brain relative to plasma"}, "[6]": {"settings": "cited from earlier work"}, "[7]": {"molecular_target": "T2, EP2 receptors (Homo sapiens, UniProt P43116)", "T2 construct": "host or cells: neurons in vitro", "T2 sequence (P43116 whole entry)": "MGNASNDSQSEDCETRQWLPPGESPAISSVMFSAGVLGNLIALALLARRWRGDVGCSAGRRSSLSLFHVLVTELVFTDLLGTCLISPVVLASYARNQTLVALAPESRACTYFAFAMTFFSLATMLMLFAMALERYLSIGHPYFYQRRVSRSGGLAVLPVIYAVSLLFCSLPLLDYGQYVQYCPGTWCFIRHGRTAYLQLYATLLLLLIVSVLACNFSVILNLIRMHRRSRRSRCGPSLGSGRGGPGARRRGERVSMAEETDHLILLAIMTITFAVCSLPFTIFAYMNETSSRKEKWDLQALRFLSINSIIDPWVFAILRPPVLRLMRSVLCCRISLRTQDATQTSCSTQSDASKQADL", "settings": "in vitro; cited from earlier work"}, "[8]": {"test_system": "PGE2 production by cell lines", "test": "PGE2 production by cell lines", "assay_type": "cell-based"}, "[9]": {"test": "chemical stability in aqueous solutions", "assay_type": "physicochemical", "settings": "over broad pH range"}, "[10]": {"test": "stability on incubation with hepatocyte extracts", "assay_type": "in vitro ADME"}, "[11]": {"test": "stability on incubation with hepatocyte cell lines", "assay_type": "in vitro ADME"}, "[12]": {"test": "toxicity after IP injection into mice"}, "[13]": {"molecular_target": "T3, recombinant 15-PGDH (Homo sapiens, UniProt P15428)", "T3 sequence (P15428 1-266)": "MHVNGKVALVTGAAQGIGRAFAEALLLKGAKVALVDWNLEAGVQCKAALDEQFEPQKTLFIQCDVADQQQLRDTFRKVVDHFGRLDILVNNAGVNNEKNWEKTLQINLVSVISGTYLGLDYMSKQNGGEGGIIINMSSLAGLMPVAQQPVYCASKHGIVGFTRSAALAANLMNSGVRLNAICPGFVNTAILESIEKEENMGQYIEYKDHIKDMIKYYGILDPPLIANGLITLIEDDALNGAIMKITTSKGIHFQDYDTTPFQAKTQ", "test": "inhibition of recombinant 15-PGDH", "assay_type": "biochemical"}, "[14]": {"test": "stability on incubation with mouse liver extracts", "assay_type": "in vitro ADME"}, "[15]": {"test": "stability on incubation with rat liver extracts", "assay_type": "in vitro ADME"}, "[16]": {"test": "stability on incubation with human liver extracts", "assay_type": "in vitro ADME"}},
  "note": "Like-named read-outs stand apart in the source and are kept apart here.",
  "data": [
    {"smiles": "CCCC[S+]([O-])c1sc2nc(-c3cccs3)cc(-c3ccccc3)c2c1N", "note": "(single isomer, unassigned; (+)) [(+) SW033291]", "values": [
      {"measurement": "brain PGE2 levels versus vehicle", "setting": "[1]", "result": "roughly double"},
      {"measurement": "Barnes maze learning (time to locate the cup, training days 1-4)", "setting": "[2]; daily IP treatment from 24 hours after injury, study days 7-10", "result": "appear similar to control mice that received only sham injury"},
      {"measurement": "Barnes maze memory (time within 5 cm of the cup's prior location)", "setting": "[2]; study day 11", "result": "behaved similarly to control mice that received only sham injury"},
      {"measurement": "foot slips from the beam", "setting": "[2]; study day 14", "result": "intermediate performance"},
      {"measurement": "15-PGDH enzyme activity in brain (cortex, cerebellum, pons and medulla)", "setting": "[3]", "result": "readily inhibited"},
      {"measurement": "PGE2 levels in rat brain cortex", "setting": "[4]; 30, 120 and 180 minutes after single IP injection at 2.5, 5.0, 10.0 mg/kg", "result": "elevated"},
      {"measurement": "PGE2 levels in rat brain cortex", "setting": "[4]; 120 minutes after dosing at 10 mpk IP", "result": "double"},
      {"measurement": "PGE2 levels in rat brain cortex", "setting": "[4]; 180 minutes after dosing at 5 mpk IP", "result": "double"}
    ]},
    {"smiles": "CCCC[S+]([O-])c1sc2nc(-c3nccs3)cc(-c3cnc(C)n3C)c2c1N", "note": "(single isomer, unassigned; (+)) [(+) SW209415]", "values": [
      {"measurement": "Kp", "setting": "[5]", "result": 1.56}
    ]},
    {"smiles": "CCCCC[C@H](O)/C=C/[C@H]1[C@H](O)CC(=O)[C@@H]1C/C=C\\CCCC(=O)O", "note": "[PGE2, prostaglandin E2]", "values": [
      {"measurement": "half-life", "setting": "[6]; following intravenous injection", "result": "less than 1 min"},
      {"measurement": "half-life", "setting": "[6]; in the circulatory system", "result": "approximately 30 sec"}
    ]},
    {"smiles": "CCCC1([C@H](O)C/C=C/[C@H]2[C@H](O)CC(=O)[C@@H]2CCCCCCC(=O)OC)CCC1", "note": "[butaprost]", "values": [
      {"measurement": "protection of neurons from amyloid β-peptide neurotoxicity", "setting": "[7]", "result": "protected neurons"}
    ]},
    {"smiles": "CCCC[S+]([O-])c1sc2nc(-c3cccs3)cc(-c3ccccc3)c2c1N", "note": "(centres unmarked) [formula (IX)]", "values": [
      {"measurement": "PGE2 production by cell lines", "setting": "[8]", "result": "increase PGE2 production"},
      {"measurement": "chemical stability in aqueous solutions", "setting": "[9]", "result": "chemically stable"},
      {"measurement": "chemical stability when incubated with hepatocyte extracts", "setting": "[10]", "result": "chemically stable"},
      {"measurement": "chemical stability when incubated with hepatocyte cell lines", "setting": "[11]", "result": "chemically stable"},
      {"measurement": "toxicity on repeated dosing", "setting": "[12]; IP into mice at 0.3 μmole/per mouse twice daily for 21 days", "result": "no toxicity"},
      {"measurement": "immediate toxicity over 24 hours", "setting": "[12]; IP into mice at 0.6 μmole/per mouse", "result": "no immediate toxicity"},
      {"measurement": "immediate toxicity over 24 hours", "setting": "[12]; IP into mice at 1.2 μmole/per mouse", "result": "no immediate toxicity"}
    ]},
    {"smiles": "CCCC[S+]([O-])c1sc2nc(-c3nccs3)cc(-c3cnc(C)n3C)c2c1N", "note": "(centres unmarked) [formula (X)]", "values": [
      {"measurement": "concentration at which recombinant 15-PGDH is inhibited", "setting": "[13]", "result": 3, "unit": "nM"},
      {"measurement": "concentration at which PGE2 production by cell lines is increased", "setting": "[8]", "result": 20, "unit": "nM"},
      {"measurement": "chemical stability in aqueous solutions", "setting": "[9]", "result": "chemically stable"},
      {"measurement": "chemical stability when incubated with mouse liver extracts", "setting": "[14]", "result": "chemically stable"},
      {"measurement": "chemical stability when incubated with rat liver extracts", "setting": "[15]", "result": "chemically stable"},
      {"measurement": "chemical stability when incubated with human liver extracts", "setting": "[16]", "result": "chemically stable"},
      {"measurement": "immediate toxicity over 24 hours", "setting": "[12]; IP into mice at 50 mg/kg body weight", "result": "no immediate toxicity"}
    ]}
  ]
}
